# Assay results published in US4108857A, “Imidazolylmethyl methanobenzazocines” (Sterling Drug Inc., priority 1977, dated 1978).
# Structures can show the parent of a compound that is named as a salt.
# Columns and labels:
# [1] = tested on: mice; assay: inclined screen test in mice (skeletal muscle relaxation); assay type: in vivo; conditions: 100 mg./kg. subcutaneously, mice
# [2] = precipitation on diluting ethyl alcohol solution with four volumes of water; assay type: physicochemical; conditions: 5 percent (w/v) solution in 95 percent ethyl alcohol
# [3] = solubility in water or aqueous acid; conditions: for solubility: water
# [4] = solubility in 95 percent ethyl alcohol; conditions: for solubility: 95% ethanol, organic solvent or mixture
# [5] = pH of solution; assay type: physicochemical; conditions: for pH of 1 percent aqueous solution: 1 percent solution (Example 26 as dihydrochloride, Example 32 as such, others as hydrochloride)
# [6] = precipitation on gradual pH adjustment of the aqueous solution; assay type: physicochemical; conditions: for precipitation on adjusting to pH 7.0: 1 percent solution; for pH at which a precipitate formed: addition of N/10 sodium hydroxide solution to aqueous solution of hydrochloride
# [7] = tested on: maximal electroshock seizures; assay: anti-maximal electroshock seizure test in mice; assay type: in vivo
# Experimental: The preferred species of this invention, i.e. the compounds having in free base form Formula II, are useful as analgesic agents administered orally or parenterally to humans. […] In the anti-maximal electroshock seizure test, the compounds were administered intraperitoneally or perorally 30 or 90 minutes prior to the application of 50 milliamperes of alternating current through corneal electrodes. Shock duration was 0.3 second. The criterion for anticonvulsant activity was the absence of the tonic hind leg extensor component of the seizure. In the anti-maximal pentylenetetrazol seizure test, the compounds were given intraperitoneally 30 or 90 minutes prior to the rapid intravenous injection of 50 mg. per kg. of pentylenetetrazol. Failure to display tonic hind leg extensor seizures was again the criterion for drug action. Representative results, expressed as ED50 (mg./kg.), which were obtained with my new compounds in these two tests are as follows: […]
# [8] = tested on: maximal pentylenetetrazol seizures; assay: anti-maximal pentylenetetrazol seizure test in mice; assay type: in vivo; conditions: for ED50: Mus musculus
# [9] = tested on: humans; assay: analgesic use in humans; assay type: in vivo
# Experimental: For example, administered orally, the effective dosage of the racemic cis form of this compound in humans has been determined to be about 0.1 to 0.5 mg. of drug per kg. of body weight per day, at 5-25 mg. per dose; preferably about 0.2 to 0.4 mg./kg./day, for instance a total of […] at 20 mg./dose.
# [10] = one entry spanning PO 30' and 90'
structure (smiles),measurement,setting,value
"C[C@H]1[C@H]2Cc3ccccc3[C@]1(C)CCN2Cc1cncn1C (relative stereo) [Example 37, racemic 1,2,3,4,5,6-hexahydro-3-(1-methylimidazol-5-yl)methyl-cis-6,11-dimethyl-2,6-methano-3-benzazocine]",side-effect in the inclined screen test,[1],CNS stimulation
same,skeletal muscle relaxant activity in the inclined screen test,[1]; 30 or 60 minutes,active
same,precipitation on dilution with four volumes of water,[2],precipitated
same,solubility,[3],< 2.5 mg/mL
same,solubility,[4],50 mg/mL
"C[C@H]1[C@H]2Cc3ccccc3[C@]1(C)CCN2CCCN (relative stereo) [Example 26, racemic 1,2,3,4,5,6-hexahydro-3-(3-aminopropyl)-cis-6,11-dimethyl-2,6-methano-3-benzazocine]",pH of 1 percent aqueous solution,[5],6.6
same,precipitation on adjusting to pH 7.0,[6]; N/10 sodium hydroxide solution,no precipitate was formed
same,solubility,[3],200 mg/mL
"CC[C@H]1[C@H]2Cc3ccccc3[C@]1(C)CCN2C (relative stereo) [racemic 1,2,3,4,5,6-hexahydro-3-methyl-cis-(6-methyl-11-ethyl)-2,6-methano-3-benzazocine]",pH of 1 percent aqueous solution,[5],6.7
same,precipitation on adjusting to pH 7.0,[6]; N/10 sodium hydroxide solution,no precipitate formed
same,solubility,[3],50 mg/mL
"CC[C@]12CCN(CC3CC3)[C@H](Cc3ccccc31)[C@@H]2C (relative stereo) [Example 3, 1,2,3,4,5,6-hexahydro-3-cyclopropylmethyl-cis-(6-ethyl-11-methyl)-2,6-methano-3-benzazocine]",pH of 1 percent aqueous solution,[5],5.6
same,pH at which a precipitate formed,[6],6.5
same,solubility,[3],200 mg/mL
"C[C@H]1[C@H]2Cc3ccccc3[C@]1(C)CCN2CC1CCCC1 (relative stereo) [Example 6, racemic 1,2,3,4,5,6-hexahydro-3-cyclopentylmethyl-cis-6,11-dimethyl-2,6-methano-3-benzazocine]",Anti-Maximal Electroshock ED50,"[7]; one entry spanning PO and IP, 30' and 90'",INACTIVE
same,ED50,"[8]; 0.5 h, IP, 30'",11.7 ± 2 mg/kg
same,ED50,"[8]; 1.5 h, IP, 90'",8 ± 3 mg/kg
same,Anti-Maximal Pentylenetetrazol ED50,[8]; [10],INACTIVE
same,pH of 1 percent aqueous solution,[5],6.2
same,pH at which a precipitate formed,[6],6.3
same,solubility,[3],10 mg/mL
"C[C@@H]1[C@H]2Cc3ccccc3[C@]1(C)CCN2CC1CC1 (relative stereo) [Example 2, racemic 1,2,3,4,5,6-hexahydro-3-cyclopropylmethyl-trans-6,11-dimethyl-2,6-methano-3-benzazocine]",solubility,[3],< 2.5 mg/mL
same,solubility,[4],< 10 mg/mL
"C[C@H]1[C@H]2Cc3ccccc3[C@]1(C)CCN2C(=O)c1cccnc1 (relative stereo) [Example 34, racemic 1,2,3,4,5,6-hexahydro-3-nicotinoyl-cis-6,11-dimethyl-2,6-methano-3-benzazocine]",pH of 1 percent aqueous solution,[5],2.7
same,pH at which a precipitate formed,[6],3.0
same,solubility,[3],200 mg/mL
"C[C@H]1[C@H]2Cc3ccccc3[C@]1(C)CCN2CCc1c[nH]c2ccccc12 (relative stereo) [Example 30, racemic 1,2,3,4,5,6-hexahydro-3-[2-(3-indolyl)ethyl]-cis-6,11-dimethyl-2,6-methano-3-benzazocine]",solubility,[3],< 2.5 mg/mL
same,solubility of hydrochloride in 95 percent ethyl alcohol,[4],less than one
"COC(CN1CC[C@@]2(C)c3ccccc3C[C@@H]1[C@@H]2C)OC (relative stereo) [Example 39, racemic 1,2,3,4,5,6-hexahydro-3-(2,2-dimethoxyethyl)cis-6,11-dimethyl-2,6-methano-3-benzazocine]",pH of 1 percent aqueous solution,[5],5.9
same,precipitation on adjusting to pH 7.0,[6]; N/10 sodium hydroxide solution,no precipitate formed
same,solubility,[3],200 mg/mL
"CC1[C@@H]2Cc3ccccc3[C@@]1(C)CCN2CC1CCC1 (mixture of isomers) [Example 4, racemic 1,2,3,4,5,6-hexahydro-3-cyclobutylmethyl-cis-6,11-dimethyl-2,6-methano-3-benzazocine]",Anti-Maximal Electroshock ED50,"[7]; IP, 30', 30 min",30.5 ± 5.8 mg/kg
same,Anti-Maximal Electroshock ED50,"[7]; IP, 90'",INACT.
same,Anti-Maximal Electroshock ED50,[7]; [10],inact.
same,Anti-Maximal Pentylenetetrazol ED50,"[8]; IP, 30', 30 min",13.2 ± 3 mg/kg
same,Anti-Maximal Pentylenetetrazol ED50,"[8]; IP, 90', 90 min",26.2 ± 8.1 mg/kg
same,Anti-Maximal Pentylenetetrazol ED50,"[8]; PO, 30'",INACT.
same,Anti-Maximal Pentylenetetrazol ED50,"[8]; PO, 90', 90 min",25.8 ± 7 mg/kg
same,pH of ethyl alcohol solution diluted with four volumes of water,"[5]; hydrochloride, 5 percent (w/v) in 95 percent ethyl alcohol, then diluted",6.1
same,precipitation on dilution with four volumes of water,[2],no precipitate formed
same,solubility of hydrochloride in water,[3]; hydrochloride,less than 0.25%
same,solubility of hydrochloride in 95 percent ethyl alcohol,[4],5 percent (w/v)
"CCCCNC(=O)N1CC[C@@]2(C)c3ccccc3C[C@@H]1[C@@H]2C (relative stereo) [Example 32, racemic 1,2,3,4,5,6-hexahydro-3-(n-butylcarbamyl)-cis-6,11-dimethyl-2,6-methano-3-benzazocine]",pH of 1 percent aqueous solution,[5],9.2
same,precipitation on adjusting to pH 7.0,[6]; N/10 hydrochloric acid solution,no precipitate was formed
same,solubility,[3],200 mg/mL
"CC(C)=CCN1CC[C@@]2(C)c3ccccc3C[C@@H]1[C@@H]2C (relative stereo) [Example 10, racemic 1,2,3,4,5,6-hexahydro-3-(3-methyl-2-butenyl)-cis-6,11-dimethyl-2,6-methano-3-benzazocine]",pH of 1 percent aqueous solution,[5],6.1
same,precipitation on adjusting to pH 7.0,[6]; N/10 sodium hydroxide solution,no precipitate was formed
same,solubility,[3],200 mg/mL
"C[C@H]1[C@H]2Cc3ccccc3[C@]1(C)CCN2CCC(=O)O (relative stereo) [Example 24, racemic 1,2,3,4,5,6-hexahydro-3-(2-carboxyethyl)-cis-6,11-dimethyl-2,6-methano-3-benzazocine hydrochloride]",pH of 1 percent aqueous solution,[5],3.0
same,precipitation on adjusting to pH 7.0,[6]; N/10 sodium hydroxide solution,no precipitate formed
same,solubility,[3],100 mg/mL
"C[C@H]1[C@H]2Cc3ccccc3[C@]1(C)CCN2CC1CCCO1 (stereo partly drawn) [Example 28, 1,2,3,4,5,6-hexahydro-3-(tetrahydro-2-furylmethyl)-cis-6,11-dimethyl-2,6-methano-3-benzazocine]",solubility,[3],< 2.5 mg/mL
same,solubility,[4],50 mg/mL
"CC1C2Cc3ccc(O)cc3C1(C)CCN2CC1CC1 (stereo not drawn) [1,2,3,4,5,6-hexahydro-3-cyclopropylmethyl-8-hydroxy-6,11-dimethyl-2,6-methano-3-benzazocine, reference compound]",psychotomimetic effects in humans,[9]; analgesically effective doses,significant incidence of psychotomimetic effects
same,analgesic activity in humans,[9]; humans,potent analgesic
"C[C@H]1[C@H]2Cc3ccccc3[C@]1(C)CCN2CC1CC(C)(C)C1 (relative stereo) [Example 5, racemic 1,2,3,4,5,6-hexahydro-3-(3,3-dimethylcyclobutylmethyl)-cis-6,11-dimethyl-2,6-methano-3-benzazocine]",pH of 0.5 percent aqueous solution,"[5]; hydrochloride, 0.5 percent",6.8
same,pH at which a precipitate formed,[6],6.8
same,precipitation on dilution with four volumes of water,[2],a precipitate formed
same,solubility,[3],5 mg/mL
same,solubility,[4],50 mg/mL
